Patent US20050069498A1, “Method for identifying metabotropic glutamate receptor agonists and potentiators” (priority 2003, published 2005)

Tested on: VHipp norepinephrine (NE) release
Experiment: Ketamine challenge: norepinephrine release in ventral hippocampus by in vivo microdialysis
Conditions: three ketamine doses vs vehicle control, 20 min intervals over 120 min, time course and AUC (FIG. 2, 3)

`CNC1(c2ccccc2Cl)CCCCC1=O` (centres unmarked) [Ketamine] was tested, and the “VHipp norepinephrine (NE) release after ketamine challenge” value was “dose dependent increase” and the “VHipp norepinephrine (NE) release after ketamine challenge” value (listed as ketamine) was “greater area under the curve”.
